Results on seven compounds are retold here after article PMC3200184, “In vitro anti-plasmodial activity of Dicoma anomala subsp. gerrardii (Asteraceae): identification of its main active constituent, structure-activity relationship studies and gene expression profiling” (Malaria Journal, 2011).

In series [1] the test system is P. falciparum chloroquine-sensitive D10 strain. In words: pLDH in vitro anti-malarial assay, D10 strain. To be noted: for IC50: Plasmodium falciparum; for Anti-malarial activity (in words): D10 strain, SAR discussion. The series is classed as cell-based, Plasmodium falciparum. The protocol: (§1) Asexual P. falciparum chloroquine-sensitive 3D7 and D10 cultures, as well as chloroquine-resistant K1 strain cultures, were maintained and synchronized according to established methods in an atmosphere consisting of 5% oxygen, 5% carbon dioxide and 90% nitrogen. The parasites were maintained at a 5% haematocrit in RPMI 1640 medium supplemented with 25 mM HEPES, 22 mM glucose, 0.0088% hypoxanthine, 40 ug/mL gentamycin (all Sigma) and 0.5% Albumax (Invitrogen).
(§2) The anti-plasmodial activities of the extracts and pure compounds were determined against the chloroquine-sensitive D10 and the chloroquine-resistant K1 strains via the parasite lactate dehydrogenase (pLDH) assay. All test substances were stored at -20°C prior to testing. […] Chloroquine diphosphate (Sigma) was used as a reference drug in all experiments. The test substances were evaluated as ten serial two-fold dilutions (0.2 - 100 μg/mL final concentration) in medium (two replicates per concentration point) in duplicate wells. […] Test solutions were mixed with suspensions of infected human red blood cells to achieve a final haematocrit of 1% and parasitaemia of 2% and incubated for 48 h in microtitre plates (250 uL final volume). Incubation conditions were as described above for the routine maintenance of the P. falciparum cultures. The IC50 values, serving as a measure for anti-plasmodial activities, were calculated by non-linear regression dose-response analysis using GraphPad Prism v.4.0 software.

In series [2] the test system is P. falciparum chloroquine-resistant K1 strain. Briefly: microbe, parasite or virus in culture. The series is classed as cell-based. Particulars: Plasmodium falciparum. The protocol: as §1, §2
The test system of series [3] is Chinese hamster ovary (CHO) cell line. In words: MTT in vitro cytotoxicity assay. Particulars: for IC50: Cricetulus griseus, read-out: CHO IC50 (μM) n = 2; for Mammalian toxicity, CHO (in words): SAR discussion. It is filed as cell-based. The protocol:
Compounds were tested for in vitro cytotoxicity against a Chinese hamster ovary (CHO) cell line using the MTT [3-(4,5-dimethylthiazol-2-yl)-2,5-diphenyltetrazolium bromide] assay. The CHO cells were cultured in DMEM: Hams F-12 medium (1:1) supplemented with 10% heat-inactivated foetal calf serum (FCS) and gentamycin ([…]) (Highveld Biological, RSA). Samples were dissolved in 10% MeOH. Stock solutions (2 mg/mL) were prepared and were stored at -20°C until use. The samples were added to CHO cells as five ten-fold serial dilutions ranging from 100 - 0.01 μg/mL. A serial dilution of emetine (100 - 0.001 μg/mL) was used as a positive control. Cells were seeded in 96-well plates at a concentration of 10^5/mL (100 μL per well) and incubated at 37°C for 24 h in a humidified 5% CO2-air atmosphere. The medium was subsequently aspirated from the wells and replaced with 200 μL of the test compound dilutions. The microplates were incubated at 37°C for 48 h, after which 25 μL of sterile MTT (5 mg/mL in PBS) was added to each well and incubation was continued for 4 h at 37°C. Formazan crystals formed by viable cells were dissolved in DMSO and quantitated by measuring absorbance at 540 nm in a microtitre plate reader (Cambridge Technologies). Cell viabilities were calculated relative to reference wells containing no test compounds (positive cell controls) and no cells (background controls), plotted against log[test sample] and IC50 values derived by non-linear regression analysis using GraphPad Prism v.4.0 software.

The subject of series [4] is P. falciparum 3D7. In words: Dose-response curves on P. falciparum 3D7 (IC99 for treatment). The series is classed as cell-based, Plasmodium falciparum. To be noted: P. falciparum 3D7, determined from dose-response curves. The protocol:
as §1
A morphological comparison between compound 1 treated versus untreated parasites was performed to assess the effect of treatment and to establish sampling times, by examining the stage-specific progression of parasites across the intra-erythrocytic development cycle. The solvent (DMSO) or compound 1 was added in the window shortly after red blood cell (RBC) invasion and parasite development was monitored 6 hourly over a 48 h period using conventional Giemsa-stained smears. Fresh cultures were scaled up to 50 ml (5% hematocrit, 10% parasitemia), synchronized twice and treated with compound 1 in the window around invasion. Fifteen milliliters of culture was harvested at each of the stages used for transcriptional analyses (2, 6 and 12 hpt). Similar volumes were harvested from untreated P. falciparum 3D7 control cultures at the same time points. Parallel drug treatments were conducted, serving as biological replicates. […]

Series [5] relates to P. falciparum 3D7. In words: Morphological analysis of treated ring-stage parasites (Giemsa smears). It is filed as cell-based, Plasmodium falciparum. Particulars: 3D7, treated at early ring stage with 12.5 μM, followed over 48 h. The protocol: A morphological comparison between compound 1 treated versus untreated parasites was performed to assess the effect of treatment and to establish sampling times, by examining the stage-specific progression of parasites across the intra-erythrocytic development cycle. The solvent (DMSO) or compound 1 was added in the window shortly after red blood cell (RBC) invasion and parasite development was monitored 6 hourly over a 48 h period using conventional Giemsa-stained smears. Fresh cultures were scaled up to 50 ml (5% hematocrit, 10% parasitemia), synchronized twice and treated with compound 1 in the window around invasion. Fifteen milliliters of culture was harvested at each of the stages used for transcriptional analyses (2, 6 and 12 hpt). Similar volumes were harvested from untreated P. falciparum 3D7 control cultures at the same time points. Parallel drug treatments were conducted, serving as biological replicates. RNA was extracted from the frozen erythrocyte pellets as described.
A morphological analysis was performed with dehydrobrachylaenolide to ascertain the point during intra-erythrocytic development at which P. falciparum 3D7 growth was affected. […] Based on these morphological observations and the apparent rapid effect of dehydrobrachylaenolide on P. falciparum development, sampling times for transcriptional analysis were subsequently determined as 2, 6 and 12 hpt. […]

Another series deals with NCI's 60-cell line panel. More on the design: method as in earlier work. Particulars: selectivity trend towards the leukaemia sub-panel; cited from earlier work.
The subject of series [6] is induction of intracellular adhesion molecule-1 (ICAM-1). More on the design: method as in PMID 12762788. Particulars: cited from earlier work.
Setting [7] is: D10, 48 h, read-out: D10 IC50 (μM) n = 8.
The mark [8] stands for this setting: K1, 48 h, read-out: K1 IC50 (μM) n = 4.
[9] abbreviates: D10, read-out: D10 strain IC50 (μM) n = 2.
Setting [10] is: read-out: D10 strain IC50 (μM) n = 2, Table 2, D10, pLDH assay, parent compound n = 8.
The mark [11] stands for this setting: K1, read-out: K1 strain IC50 (μM) n = 2.

The structures appear in SMILES notation. Like-named read-outs stand apart in the source and are kept apart here.

The IC50 is the concentration needed to halve the response being measured. `CCN(CC)CCCC(C)Nc1ccnc2cc(Cl)ccc12` (centres unmarked) [Chloroquine, Chloroquine diphosphate, reference compound]: the IC50 in series [1] (setting [7]) was found to be 0.038 µM; in series [2] (setting [8]), 0.2 µM; in series [3] (CHO, 48 h), 35.8 µM.

`CC1=C2[C@H]3OC(=O)[C@@H](C)[C@@H]3CC[C@@]2(C)C=CC1=O` [Compound 3, santonin]: in series [1], the “Anti-malarial activity (in words)” value is given as “devoid of any significant anti-malarial activity”. Moreover, the values for the IC50 in series [1] (setting [9]) and in series [3] (CHO) were > 40 µM and > 400 µM, respectively. For the same compound, the “Mammalian toxicity, CHO (in words)” value in series [3] (CHO cells) is on record as “devoid of any significant anti-malarial activity or mammalian toxicity”.

Take `C=C1C(=O)O[C@@H]2[C@H]3[C@@H](C)C(=O)C=C[C@]3(C)CC[C@@H]12` [Compound 6, (3aS,5aS,9R,9aS,9bS)-5a,9-dimethyl-3-methylene-3a,4,5,5a,9,9a-hexahydronaphtho[1,2-b]furan-2,8(3H,9bH)-dione]: the “Anti-malarial activity (in words)” value in series [1] is on record as “no significant improvement in anti-malarial activity”. In addition, the IC50 in series [1] (setting [9]) amounted to 16.9 µM; in series [3] (CHO), 41.9 µM. Further, the “Mammalian toxicity, CHO (in words)” value in series [3] (CHO cells) is given as “increased mammalian cell toxicity”.

With `C=C1C(=O)C[C@H]2C1CCC1(C)CCC(=O)C(C)C21` (stereo partly drawn) [Compound 5, (9bS)-5a,9-Dimethyl-3-methyleneoctahydro-1H-cyclopenta[a]naphthalene-2,8(3H,9bH)-dione], in series [1], the “Anti-malarial activity (in words)” value is on record as “moderate anti-malarial activity”. The IC50 in series [1] (setting [10]) stood at 22.1 µM; in series [3] (Table 2, CHO cells, MTT) it was 124 µM. Also, in series [3] (CHO cells), the “Mammalian toxicity, CHO (in words)” value is “substantially reduced”.

Take `C[C@@H]1C(=O)O[C@H]2[C@H]1CC[C@@]1(C)CCC(=O)[C@H](C)[C@H]21` [Compound 4, (3S,3aS,5aS,9R,9aS,9bS)-3,5a,9-trimethyl-octahydronaphtho[1,2-b]furan-2,8(3H,9bH)-dione]: the “Anti-malarial activity (in words)” value in series [1] was “lacking both activity and toxicity”. Besides, the IC50 in series [1] (setting [10]) was > 40 µM; in series [3] (Table 2, CHO cells, MTT) it was > 400 µM. In addition, the “Mammalian toxicity, CHO (in words)” value in series [3] (CHO cells) is “lacking both activity and toxicity”.

In the case of `C=C1C(=O)C=C[C@]2(C)CC[C@H]3C(=C)C(=O)O[C@H]3[C@@H]12` [Compound 1, 3-oxoeudesma-1,4(15),11(13)-triene-12,6α-lide], the IC50 is 1.86 ± 0.254 µM in series [1] (setting [7]); 1.86 µM in series [1] (setting [9]); 0.455 µg/mL in series [1] (D10, read-out: IC50 against D10 strain); 4.09 ± 0.579 µM in series [2] (setting [8]); 1 µg/mL in series [2] (K1, read-out: IC50 against K1 strain); 4.09 µM in series [2] (setting [11]). Also, the IC50 was 17.2 µM in series [3] (CHO, 48 h) and 17.2 µM in series [3] (CHO). Also, the “IC99 (treatment concentration)” value with P. falciparum 3D7 [4] amounted to 12.5 µM. Also, the “Morphological effect on intra-erythrocytic development” value in the series with P. falciparum 3D7 [5] was “Treated parasites remained arrested in the ring phase”. Besides, the “Anti-cancer activity (in words)” value in the series on NCI's 60-cell line panel is on record as “significant anti-cancer activity”. For the same compound, in series [6], the “Activity toward ICAM-1 induction (in words)” value is given as “inhibitory activity”.

Consider `C=C1C(=O)O[C@@H]2C3=C(C)C(=O)C=C[C@]3(C)CC[C@@H]12` [Compound 2, (3aS,5aS,9bS)-5a,9-dimethyl-3-methylene-3a,4,5,5a-tetrahydronaphtho[1,2-b]furan-2,8(3H,9bH)-dione], for which the “Anti-malarial activity (in words)” value in series [1] is “six-fold less active”. The IC50 in series [1] (setting [9]) came to 11.5 µM; in series [2] (setting [11]) it was 9.05 µM; in series [3] (CHO), 7.01 µM.
